Measurements reported in paper PMC6397244, “Peptide Assembly on the Membrane Determines the HIV-1 Inhibitory Activity of Dual-Targeting Fusion Inhibitor Peptides” (Scientific Reports, 2019).
pEC50: −log10 of the molar value. Ends that are not written are not given here.

What was measured:
[1] = tested on: AC10 (HIV pseudotype, Env pAC10.0); conditions: AC10 (R5, subtype B); TZM-bl, peptide 1 h before and during infection, luciferase read-out 48 h after infection; duplicates
From the text: (§1) The anti-HIV activities of DT-peptides and E1 were comparatively tested against a set of viral pseudotypes carrying HIV envelopes from HIV subtype A, B, C and A/E (Table 1) in the TZM-bl reporter cell line.
(§2) The preparation of the HIV-1 Env pseudotyped virus stocks in a GCLP- (Good Clinical Laboratory Practice) compliant manner occurred as described previously. This includes the pseudoviruses listed in Table 2 with the Env sequences HXB2, AC10.0.29, Q461.e2, Q23.17, CAP210.2.00.E8 and CM235.c11 as well as the Env deficient backbone plasmid pSG3ΔEnv. Within this study the titration assay to determine the virus dilution at a relative luminescence unit (RLU) of 150,000 was performed according to the method described before[34]–[36] and the luminescence was measured using the Infinite F200 microplate reader.
(§3) Peptides were tested for their antiviral activities against a panel of HIV pseudotypes carrying different HIV envelope proteins (Table 2) in the TZM-bl indicator cell line. Briefly, 10-fold serial dilutions of the compounds (0.001–10 µM) were incubated in duplicates with the cells in 96-well plates. 1 h after incubation, cell culture medium was replaced and cells were infected with the different pseudotypes together with fresh compounds. […] 48 h after infection, cells were washed and luciferase was quantified using the Britelite Plus Luciferase Assay System (PerkinElmer). Luciferase values were normalized to DMSO control. Cell viability was estimated in parallel in non-infected TZM-bl cells with the Cell Titer Glo ATPase kit (Promega). CC50 and EC50 values ± SEM were calculated with GraphPad Prism, using the built-in function log (inhibitor) vs. normalized response.

[2] = tested on: CAP210 (HIV pseudotype, Env pCAP210.2); conditions: CAP210 (R5, subtype C); TZM-bl, peptide 1 h before and during infection, luciferase read-out 48 h after infection; duplicates
From the text: as §1, §2, §3

[3] = tested on: CM235 (HIV pseudotype, Env pCM235/GS); conditions: CM235 (R5, subtype A/E); TZM-bl, peptide 1 h before and during infection, luciferase read-out 48 h after infection; duplicates
From the text: as §1, §2, §3

[4] = tested on: HXB2 (HIV pseudotype, Env pHXB2); conditions: HXB2 (X4, subtype B); TZM-bl, peptide 1 h before and during infection, luciferase read-out 48 h after infection; duplicates
From the text: as §1, §2, §3

[5] = tested on: Q23 (HIV pseudotype, Env pQ23.17); conditions: Q23 (R5, subtype A); TZM-bl, peptide 1 h before and during infection, luciferase read-out 48 h after infection; duplicates
From the text: as §1, §2, §3

[6] = tested on: Q461 (HIV pseudotype, Env pQ461.e2); conditions: Q461 (R5, subtype A); TZM-bl, peptide 1 h before and during infection, luciferase read-out 48 h after infection; duplicates
From the text: as §1, §2, §3

[7] = membrane affinity / partition, intrinsic Trp fluorescence on titration with POPC liposomes; format: physicochemical; conditions: 5 µM peptide, POPC LUVs 0.05–0.6 mM, 20 °C; for apparent mole fraction partition coefficient KX: intrinsic Trp fluorescence (ex 280 nm), PBS 0.01 M pH 7.4 (method) / HEPES, triplicate
Protocol: Unilamellar vesicles (LUV) composed of the negatively charged phospholipid 1-palmitoyl-2-oleoyl-sn-glycero-3-phospho-(1′-rac-glycerol) (POPG) or zwitteronic phospholipid palmitoyl-2-oleoyl-sn-glycero-3-phosphocholine (POPC) (both from Avanti Polar-Lipids) were prepared as model membranes. Lipids (10 mM) were dissolved in chloroform/methanol (2/1, v/v) solution. The solvent was evaporated under reduced pressure. A buffer solution of PBS 0.01 M pH 7.4 was added to the previously obtained lipid film to prompt the spontaneous formation of multilamellar vesicles that were subjected to a process of 10 freeze and thaw cycles. The liposomes were then subjected to an extrusion process through 100-nm pore-sized polycarbonate filters in a high-pressure extruder.
To carry out membrane partition studies with DT-peptides, emission fluorescence spectra were recorded for DT-peptides in PBS (0.01 M, pH 7.4) at 20 °C using an excitation wavelength of 280 nm. Changes in the tryptophan (Trp) fluorescence spectra were monitored after incubation of 5 µM of each peptide with increasing concentrations of liposomes. The suspensions were continuously stirred and were left to equilibrate for 10 min before recording the spectra. Fluorescence intensities were corrected by subtraction of the vesicle blank. A lipid titration of N-acetyltryptophanamide (NATA) was carried out at the same time. As described in ref. [31], the apparent mole fraction partition coefficients were determined by fitting the binding curves to the equation: F=fboundFmax+(1−fbound)F0 where F is the relative fluorescence intensity, F0 is the fluorescence intensity in the absence of lipid. fbound=KxL/(W+KxL) where Kx is the mole fraction partition coefficient, L is the lipid concentration, and W is the molar concentration of water (55.3 M at 25 °C).

[8] = 1D 1H NMR in DPC micelles; format: physicochemical; conditions: NMR sample
Protocol: Nuclear magnetic resonance (NMR) spectra were recorded at 300 K on a Bruker Avance III console (Bruker Biospin, Germany) combined with a […] Oxford Instruments magnet (^1H 500 MHz), equipped with a 5 mm inverse cryogenically cooled triple-resonance TCI (^1H, ^13C, ^15N, and ^2H lock) cryoprobe with a z-axis magnetic field-gradient capability. For proton spectra acquisition, peptide samples were prepared by dissolving first lyophilized peptide in a small amount of DMSO-d6 and next, dissolution in detergent solution containing perdeuterated DPC-d38 (final molar ratio ~ 1:100, peptide/DPC 0.5:50 mM). […] The diffusion coefficient, D, was determined by fitting diffusion weighted intensities of selected peaks or integrals over a chosen range to the following equation1 I=I0exp{−γ^2g^2δ^2(Δ−δ/3)D}, where γ is the gyromagnetic ratio of proton and g, δ and Δ are the amplitude, duration and separation of the single pair of gradient pulses, respectively. […] The reason for DPC diffusion coefficients being higher than peptides values is likely due to a surplus of free monomeric DPC molecules (below cmc), so the diffusion coefficient measured for DPC has a relevant contribution of […], while the observed peptide resonances (and their diffusion coefficient) mainly correspond to DPC-bound peptide.

[9] = Trp quenching by brominated phospholipids; format: physicochemical; conditions: 2 µM peptide, 200 µM Br-PC vs DOPC vesicles, 5 min, 25 °C, excitation 290 nm; three repeated assays
Protocol: Quenching of Trp by brominated phospholipid was performed using liposomes composed of 1,2-di-(9-10-dibromo) stearoyl-sn-glycero-3-phosphocoline (Br-PC) (Avanti Polar Lipids). As previously reported, this lipid has similar properties as unsaturated phosphatidylcholine chains due to the bulkiness of bromine residues. For this reason, liposomes of 1,2-dioleoyl-sn-glycero-3-phosphocholine (DOPC) were used for comparing the Trp fluorescence of peptides with brominated liposomes. Liposomes were prepared following the same procedure as described above. Comparatively, a concentration of 2 µM of peptides was added to 200 µM of lipid vesicles either BrPC or DOPC. After 5 min of incubation at 25 °C, fluorescence spectra were recorded with an excitation wavelength of 290 nm and emission from 300 to 450 nm. The fractional quenching was calculated as reported in ref. [33] by (F0 − F)/F0, where F0 is the fluorescence intensity at 340 nm for peptides added to DOPC liposomes and F for peptides added to Br-PC liposomes.

HIV-1 FP = conditions: donor:acceptor 1:1 ratio; cited from earlier work
From the text: The energy transfer efficiency between FP and E1 peptide at a donor:acceptor 1:1 ratio, was around 30% while the energy transfer efficiency between FP and DT-P2 was only 5%.

Substance	pEC50 [1]	pEC50 [2]	pEC50 [3]	pEC50 [4]	pEC50 [5]	pEC50 [6]	apparent mole fraction partition coefficient KX [7]	effect of higher DMSO-d6 (from 3 to 13%) to increase solubility [8]	Trp fluorescence upon titration with POPC liposomes / membrane partition (in words) ([7]; excitation 280 nm)	Trp quenching by brominated lipid vesicles / accessibility for the lipids (in words) [9]	energy transfer efficiency between FP and peptide (HIV-1 FP)
WILEYLWKVPFDFWRGVIGGGSLCDCPNGPWVWVPAFCQAVG-NH2 (cysteines drawn unpaired) [DT-P2]	4.85	5.03	4.75	4.97	4.80	4.61	2.4 × 10^5	–	–	–	–
LCDCPNGPWVWVPAFCQAVGGGGSWILEYLWKVPFDFWRGVI-NH2 (cysteines drawn unpaired) [DT-P1]	4.70	4.89	4.72	5.12	4.67	4.61	–	no improvement was observed	–	–	–
WILEYLWKVPFDFWRGVI-NH2 (C-terminus assumed) [E1]	–	–	–	–	–	–	8.2 × 10^5	–	partitioned stronger into lipid vesicles	highly quenched demonstrating greater peptide accessibility to the hydrophobic inner part of the lipid vesicles	around 30%
